A short description of test [1]: inhibitors of SNCA 5'UTR-driven reporter translation, confirmation, H4 neuroglioma cells, luminescence (AID 1988). In kind it is functional, cell-based.
Test [2] is described as follows: Luminescence Cell-Based Dose Response HTS to Identify Inhibitors of 5'UTR Stem-Loop Driven Prion Protein mRNA Translation in H4 Neuroglioblastoma Cells. [Related pubchem assays: 1827 (Project Summary), 1813 (Primary HTS)]. In kind it is functional.
Test [3] can be described thus: inhibitors of firefly luciferase expression or activity, dose response, H4 neuroglioma cells, luminescence (AID 1990). In kind it is functional, cell-based.
Test [4] concerns the target T1, RNA-binding protein pos-1 (Caenorhabditis elegans, UniProt G5EF15).
T1 sequence (G5EF15 whole entry): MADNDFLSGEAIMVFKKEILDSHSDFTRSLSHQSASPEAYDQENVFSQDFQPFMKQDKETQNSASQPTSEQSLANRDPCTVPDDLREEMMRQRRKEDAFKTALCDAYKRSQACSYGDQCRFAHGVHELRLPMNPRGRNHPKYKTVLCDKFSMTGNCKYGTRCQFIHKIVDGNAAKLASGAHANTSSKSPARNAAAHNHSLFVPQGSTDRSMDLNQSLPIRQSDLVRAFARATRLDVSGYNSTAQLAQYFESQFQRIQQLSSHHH
The experiment in a line: inhibitors of POS-1/mex-3 RNA binding, dose response, biochemical, fluorescence polarization (AID 1964).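 Note: purified POS-1 fused to maltose binding protein made in E. coli; potency of compounds blocking POS-1 binding to fluorescent RNA.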

Test [5] concerns the target T2, Zinc finger protein mex-5 (Caenorhabditis elegans, UniProt Q9XUB2).
T2 sequence (Q9XUB2 whole entry): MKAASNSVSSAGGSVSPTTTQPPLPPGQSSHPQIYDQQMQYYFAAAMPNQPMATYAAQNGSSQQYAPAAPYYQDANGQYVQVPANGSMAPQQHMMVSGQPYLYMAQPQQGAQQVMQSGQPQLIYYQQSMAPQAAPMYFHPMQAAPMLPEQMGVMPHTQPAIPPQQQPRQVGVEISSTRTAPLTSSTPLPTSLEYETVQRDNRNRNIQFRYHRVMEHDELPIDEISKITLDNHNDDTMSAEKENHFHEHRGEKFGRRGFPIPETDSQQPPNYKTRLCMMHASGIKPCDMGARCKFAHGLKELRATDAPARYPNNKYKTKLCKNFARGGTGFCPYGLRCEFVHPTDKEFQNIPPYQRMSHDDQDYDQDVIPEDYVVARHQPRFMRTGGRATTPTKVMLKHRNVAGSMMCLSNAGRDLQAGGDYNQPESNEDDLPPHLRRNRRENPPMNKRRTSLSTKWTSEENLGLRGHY
Nature of the test: MEX-5/TCR-2 RNA interaction inhibitors, dose response, biochemical, C. elegans, fluorescence polarization (AID 1960). For orientation: Fluorescence polarisation rises when a labelled molecule tumbles more slowly, as on binding a larger partner.

For test [6], the target named is Luciferin 4-monooxygenase (Photinus pyralis, UniProt P08659). The experiment in a line: firefly luciferase enzyme inhibitors, dose response, biochemical, luminescence (AID 1891).
Test [7] in a line: Luminescence Cell-Based Dose Confirmation HTS to Identify Inhibitors of Platelet Dense Granule Release. [Related pubchem assays: 1663 (Primary HTS), 1678 (Summary of Project)]. It is filed as functional.
For the next test, the target named is T3, Cytochrome P450 1A2 (Homo sapiens, UniProt P05177).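 Note: PubChem cytochrome P450 panel assay, CYP1A2 panel member.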
T3 sequence (P05177 whole entry): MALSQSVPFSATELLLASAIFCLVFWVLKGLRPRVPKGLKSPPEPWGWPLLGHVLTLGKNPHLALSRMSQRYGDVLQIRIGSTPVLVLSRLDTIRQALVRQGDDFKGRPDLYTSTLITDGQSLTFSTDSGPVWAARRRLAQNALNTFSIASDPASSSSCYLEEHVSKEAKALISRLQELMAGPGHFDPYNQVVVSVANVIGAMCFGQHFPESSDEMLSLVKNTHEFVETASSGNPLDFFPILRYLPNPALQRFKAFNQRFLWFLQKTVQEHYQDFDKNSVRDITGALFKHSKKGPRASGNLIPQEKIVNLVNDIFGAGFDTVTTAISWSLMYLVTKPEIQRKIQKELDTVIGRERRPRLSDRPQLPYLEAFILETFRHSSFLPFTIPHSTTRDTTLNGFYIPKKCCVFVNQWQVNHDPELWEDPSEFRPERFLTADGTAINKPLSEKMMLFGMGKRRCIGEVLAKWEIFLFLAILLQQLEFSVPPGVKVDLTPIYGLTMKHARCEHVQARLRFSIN

Another test concerns the target Cytochrome P450 3A4 (Homo sapiens, UniProt P08684).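 Note: CYP3A4 tested as one member of a cytochrome P450 panel screen.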
Another test deals with Cytochrome P450 2C19 (Homo sapiens, UniProt P33261). The experiment in a line: Cytochrome panel assay with activity outcomes. Panel member name: p450-cyp2c19 Compounds with AC50 equal or less than 10 uM are considered active. In kind it is functional. Conditions: read-out: AC50.
The target of another test is T4, Streptokinase A (Streptococcus pyogenes serotype M1, UniProt P10520).
T4 sequence (P10520 whole entry): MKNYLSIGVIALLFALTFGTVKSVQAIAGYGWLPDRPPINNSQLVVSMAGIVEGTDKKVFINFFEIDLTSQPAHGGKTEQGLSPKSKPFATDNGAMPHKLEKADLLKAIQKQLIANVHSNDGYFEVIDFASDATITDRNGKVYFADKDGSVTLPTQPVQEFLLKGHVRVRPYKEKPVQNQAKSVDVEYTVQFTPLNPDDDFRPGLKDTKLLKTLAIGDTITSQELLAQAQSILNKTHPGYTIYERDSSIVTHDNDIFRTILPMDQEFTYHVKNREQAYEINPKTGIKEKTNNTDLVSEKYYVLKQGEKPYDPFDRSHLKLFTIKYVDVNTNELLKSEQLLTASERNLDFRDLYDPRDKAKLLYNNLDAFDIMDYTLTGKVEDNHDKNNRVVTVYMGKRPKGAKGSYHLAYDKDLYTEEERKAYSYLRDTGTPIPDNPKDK
Nature of the test: S. pyogenes streptokinase expression inhibitors, potency, dose response, plasminogen activation absorbance, OD405 (AID 1914).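 Note: secreted streptokinase activity via plasminogen activation per viability signal from cell pellet.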 It is filed as functional, Streptococcus pyogenes M1 GAS.

Another test has as its system Streptococcus. Nature of the test: Group A Streptococcus viability loss, dose response, counter-screen for streptokinase expression inhibitor project, luminescence, BacTiterGlo (AID 1915).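 Note: potency for reduction of bacterial viability or growth.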 It is filed as functional, organism-based.
For test [8], the system named is Streptococcus sp. 'group A'. The experiment in a line: growth inhibition of control SK(-) GAS strain, dose response, counter-screen for streptokinase expression inhibitor project, luminescence, kanamycin, BacTiterGlo, confirmation (AID 1900). It is filed as functional, organism-based. Background: Counterscreens check selectivity or assay interference.
Test [9] can be described thus: inhibitors of intracellular T. cruzi replication, confirmation, NIH3T3 host cells, beta-gal luminescence (AID 2044).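 Note: intracellular parasites grown in NIH/3T3 mouse fibroblasts as host cells; luminescent beta-galactosidase reporter signal from transgenic T. cruzi replicating inside host cells; inhibitors lower the luminescence signal.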 In kind it is functional, cell-based.
The nature of test [10]: cytotoxicity toward NIH3T3 fibroblasts, dose response, counter-screen, cell-based, ATP luminescence, mouse fibroblasts (AID 2010).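 Note: cells exposed to compound for about 90 hours before reading.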 It is filed as functional.
The target in another test is Cytochrome P450 2C9 (Homo sapiens, UniProt P11712).

As usually defined, the EC50 is the concentration needed to bring the measured effect to its halfway point. For orientation: AC50 means the concentration giving half of the maximal activity seen.

Activity calls are given as the source filed them. Bounds are passed on as bounds.

Luciferin 4-monooxygenase, sequence (P08659 whole entry): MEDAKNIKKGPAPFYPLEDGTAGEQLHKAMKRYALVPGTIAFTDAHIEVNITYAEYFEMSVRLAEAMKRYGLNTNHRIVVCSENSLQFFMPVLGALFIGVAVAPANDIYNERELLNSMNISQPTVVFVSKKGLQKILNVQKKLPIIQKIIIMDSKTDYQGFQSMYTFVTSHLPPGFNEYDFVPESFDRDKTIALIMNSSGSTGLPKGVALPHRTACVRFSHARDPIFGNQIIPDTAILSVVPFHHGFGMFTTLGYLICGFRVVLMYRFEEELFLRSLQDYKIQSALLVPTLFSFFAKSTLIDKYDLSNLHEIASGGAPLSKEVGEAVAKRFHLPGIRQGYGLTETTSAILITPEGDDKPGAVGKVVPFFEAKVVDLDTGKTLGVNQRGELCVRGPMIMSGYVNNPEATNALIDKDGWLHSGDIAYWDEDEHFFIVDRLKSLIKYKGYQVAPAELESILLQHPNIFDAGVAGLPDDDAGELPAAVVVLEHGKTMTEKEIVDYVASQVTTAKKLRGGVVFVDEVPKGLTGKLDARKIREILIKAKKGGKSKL
Cytochrome P450 2C19, sequence (P33261 whole entry): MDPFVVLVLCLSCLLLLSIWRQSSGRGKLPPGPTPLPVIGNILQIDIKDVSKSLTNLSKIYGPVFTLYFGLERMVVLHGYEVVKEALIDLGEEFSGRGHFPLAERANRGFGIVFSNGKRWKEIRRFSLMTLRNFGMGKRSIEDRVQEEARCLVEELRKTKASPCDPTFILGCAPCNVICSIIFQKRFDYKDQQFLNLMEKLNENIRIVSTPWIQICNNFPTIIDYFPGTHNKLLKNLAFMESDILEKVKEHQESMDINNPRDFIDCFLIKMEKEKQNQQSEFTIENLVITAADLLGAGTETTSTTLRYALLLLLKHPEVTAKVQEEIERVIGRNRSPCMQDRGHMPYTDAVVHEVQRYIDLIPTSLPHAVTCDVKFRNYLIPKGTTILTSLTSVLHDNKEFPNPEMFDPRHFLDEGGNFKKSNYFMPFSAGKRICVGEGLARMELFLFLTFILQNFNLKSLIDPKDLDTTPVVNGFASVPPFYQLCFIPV
Cytochrome P450 2C9, sequence (P11712 whole entry): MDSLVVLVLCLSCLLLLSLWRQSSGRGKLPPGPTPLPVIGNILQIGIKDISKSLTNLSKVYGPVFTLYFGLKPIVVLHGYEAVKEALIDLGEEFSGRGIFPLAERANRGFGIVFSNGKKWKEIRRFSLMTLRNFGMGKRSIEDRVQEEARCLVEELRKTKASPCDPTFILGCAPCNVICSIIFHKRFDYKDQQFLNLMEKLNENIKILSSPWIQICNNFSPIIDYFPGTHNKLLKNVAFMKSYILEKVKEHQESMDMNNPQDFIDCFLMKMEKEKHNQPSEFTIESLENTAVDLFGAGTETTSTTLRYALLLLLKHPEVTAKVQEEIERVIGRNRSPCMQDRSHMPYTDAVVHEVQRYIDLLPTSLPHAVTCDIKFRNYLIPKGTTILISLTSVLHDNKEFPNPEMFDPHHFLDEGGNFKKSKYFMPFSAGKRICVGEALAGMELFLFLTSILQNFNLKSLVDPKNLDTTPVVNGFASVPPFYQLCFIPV
Cytochrome P450 3A4, sequence (P08684 whole entry): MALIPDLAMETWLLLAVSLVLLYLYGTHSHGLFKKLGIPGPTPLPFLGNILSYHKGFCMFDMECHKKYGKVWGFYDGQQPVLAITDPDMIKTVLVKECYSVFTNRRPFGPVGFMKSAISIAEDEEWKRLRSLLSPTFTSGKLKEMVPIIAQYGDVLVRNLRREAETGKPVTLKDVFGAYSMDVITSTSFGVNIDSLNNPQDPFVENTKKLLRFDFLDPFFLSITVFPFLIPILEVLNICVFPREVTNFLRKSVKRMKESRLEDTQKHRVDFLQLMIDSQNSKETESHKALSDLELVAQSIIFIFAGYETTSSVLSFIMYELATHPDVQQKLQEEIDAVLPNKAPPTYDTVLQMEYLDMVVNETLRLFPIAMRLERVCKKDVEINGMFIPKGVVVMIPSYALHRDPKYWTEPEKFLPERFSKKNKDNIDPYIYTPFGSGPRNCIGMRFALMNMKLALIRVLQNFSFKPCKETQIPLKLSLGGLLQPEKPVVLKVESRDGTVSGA

With `Cc1csc(NC(=O)c2cc3c(s2)CCCCC3)n1`, the EC50 in test [1] is 3.58 µM (active); in [2], 2.57 µM (active).
For `O=C(NC1CC1)C1=C[C@@H](c2coc3ccccc3c2=O)C[C@@H](OCc2ccc(CO)cc2)O1`, the EC50 in test [1], in [2] and in test [3] was > 120 µM (not active) each time.
In the case of `CC1CCN(S(=O)(=O)c2ccc3c(c2)N(CC(=O)N(C)Cc2ccco2)C(=O)CO3)CC1`, the EC50 is 21.2 µM (active) in [1], > 120 µM (not active) in test [2] and > 120 µM (not active) in test [3].
Turning to `CC(=O)N/C=C1\C(=O)N(C)C(=O)C(C#N)=C1C`, the EC50 in test [4] is 36.1 µM (active); in [5] it was 34.9 µM (active).
Regarding `O=Cc1cn(Cc2ccc(F)cc2Cl)c2ccccc12`, the EC50 is 12.4 µM (active) in [1], 16.8 µM (active) in test [2] and 16.2 µM (active) in test [3].
As for `CC(=O)N(Cc1c(C#N)c2ccccc2n1C)c1ccccc1`, the EC50 in test [6] and in [7] was > 112 µM (not active) in each case.
`O=C(COC(=O)c1ccc(Cl)c(S(=O)(=O)NCc2ccccc2)c1)NCC1CCCO1` (centres undefined): the EC50 in test [6] and in [7] was > 112 µM (not active) each time.
With `Cc1sc(-n2c(C)cc(C=C3C(=O)NC(=O)NC3=O)c2C)c(C#N)c1C`, the EC50 in [4] and in test [5] was > 300 µM (not active) throughout.
As for `CCOC(=O)N1CCN(S(=O)(=O)c2ccc(C(=O)Nc3ccc(F)cc3F)cc2)CC1`, the AC50 at Cytochrome P450 1A2 was 6.31 µM (inconclusive); on Cytochrome P450 3A4, 14.1 µM (inconclusive); on Cytochrome P450 2C19, 25.1 µM (inconclusive). The half-maximal effective concentration (EC50) in test [1] was 7.91 µM (active); in test [2] it was > 120 µM (not active); in test [3] it was 10.9 µM (active).
Consider `NC(=O)c1ccc[n+](Cc2ccccc2)c1`, for which the EC50 in [6] and in test [7] was > 112 µM (not active) throughout.
For the compound `CC(C)(C)c1cc(C(=O)Nc2ccc(F)cc2)n(Cc2ccc(F)cc2)n1`, the EC50 at Streptokinase A is 2.85 µM (active); in the test on Streptococcus it was 10.3 µM (active); in test [8], 7.02 µM (active).
Turning to `CCOC(=O)c1cnc2c(OC)cccc2c1N1CC(C)CC(C)C1` (centres undefined), the EC50 was 14.4 µM (active) in test [1], > 120 µM (not active) in test [2] and 13.9 µM (active) in test [3].
As to `COc1ccc(CNCC(O)(c2ccc(Cl)cc2)c2ccc(Cl)cc2)cc1`, the 50% effective concentration (EC50) on Streptokinase A is 19.7 µM (active); with Streptococcus, 17.9 µM (active); in test [8] it was 3.01 µM (active).
With `CC(C)(C)C(Cn1ccnc1)NC(=O)c1ccc2nc(C3CC3)oc2c1` (centres undefined), the EC50 in test [6] and in test [7] was > 112 µM (not active) throughout.
Turning to `COc1ccc(C2=Nn3c(nnc3-c3cc(C)[nH]n3)SC2)cc1`, the EC50 in test [6] and in [7] was > 112 µM (not active) each time.
Consider `NC(=O)c1cc(C(=O)Cc2ccccc2)c[nH]1`, for which the EC50 at Streptokinase A is 107 µM (active); with Streptococcus it was > 150 µM (not active); in [8] it was 2.27 µM (active).
For the compound `COc1ccc(CN2CCCC(C(=O)c3ccc(Cl)cc3)C2)cc1Cn1cccn1` (centres undefined), the EC50 in test [1], in test [2] and in test [3] was > 120 µM (not active) each time.
For `Cc1c([N+](=O)[O-])c(N)nn1C`, the EC50 in test [1], in [2] and in test [3] was > 120 µM (not active) in each case.
On to `Cc1ccc(S(=O)(=O)NNC(=O)c2ccccc2-n2cccc2)cc1`, for which the EC50 in test [1], in test [2] and in test [3] was > 120 µM (not active) throughout.
In the case of `COc1ccc(-c2cc(C(F)(F)F)nc(NCc3cccs3)n2)cc1`, the EC50 at Streptokinase A is 13.8 µM (active); with Streptococcus, > 150 µM (not active); in test [9], 2.19 µM (active); in [8] it was 3.73 µM (active); in test [10], > 60 µM (not active).
In the case of `COc1cc(C(=O)NC(=S)Nc2ccc(Cc3ccncc3)cc2)cc(OC)c1OC`, the figures for the EC50 (on Streptokinase A; with Streptococcus; in test [8]) were > 150 µM (not active), 25 µM (active) and 2.84 µM (active), respectively.
For `O=C(Nc1ccc2oc(-c3ccccc3)nc2c1)C1CCCO1` (centres undefined), the EC50 in [6] was 70.4 µM (active); in [7], 25.1 µM (active).
With `CC(N)Cc1ccccc1Sc1ccc(O)cc1` (centres undefined), the AC50 on Cytochrome P450 2C9 is 17.8 µM (inconclusive). In addition, the EC50 in test [6] and in test [7] was > 112 µM (not active) throughout.
Take `COc1ccccc1N1CCN(C(=O)/C=C/c2c(Cl)nc3ccccn23)CC1`: the values for the EC50 (on Streptokinase A; with Streptococcus; in [8]) were > 150 µM (not active), 12.7 µM (active) and 1.25 µM (active), respectively.
The like results for `Cc1ccccc1C(=O)Oc1cccc(Nc2ncnc3ccccc23)c1` were, in that order, 34.6 µM (active), > 150 µM (not active) and 5.76 µM (active).
As to `COc1cccc(C(=O)c2cc3ccc(O)cc3oc2=O)c1`, the figures for the EC50 in test [6] and in test [7] were 0.571 µM (active) and 1.28 µM (active), respectively.
The like results for `Cc1ccc(-c2cc(N)n(Cc3ccc(Cl)cc3)n2)cc1` were, in that order, > 112 µM (not active) and > 112 µM (not active).
The matching figures for `Cc1ccnn1CC(=O)N/N=C/c1c[nH]nc1-c1ccccc1`: > 112 µM (not active) and > 112 µM (not active).
The like results for `C/C(=N\NC(=O)C1(C)CC1(Br)Br)c1ccc(NC(=O)c2ccc(C)o2)cc1` (centres undefined) were, in that order, > 112 µM (not active) and > 112 µM (not active).

Source of the values: ChEMBL document CHEMBL1201862, “PubChem BioAssay data set” (2004).
